Data from patent US20230114728A1 (Venatorx Pharmaceuticals, Inc., priority 2019, published 2023).

Legend:
[1] = target: T1, E. coli K12 PBP3 (Escherichia coli, UniProt P0AD68); test: biochemical; assay type: binding
T1 construct: made in house
In short: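 A. baumannii PBP2 (2.5 μM) and PBP3 (0.2 μM) were run in 25 mM Tris pH 8.0 buffer with Tween 20; E. coli PBP3 (1.5 μM) and N. gonorrhoeae PBP2 ([…]) in 50 mM Hepes pH 8.0 buffer.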

[2] = target: T2, N. gonorrhoeae PBP2 (Neisseria gonorrhoeae, UniProt P08149); test: Bocillin-FL fluorescence polarization competition binding assay, N. gonorrhoeae PBP2; settings: fluorescence polarization competition binding assay using Bocillin-FL; read-out: N. gonorrhoeae PBP2 Potency
T2 construct: made in house
T2 sequence (P08149 whole entry): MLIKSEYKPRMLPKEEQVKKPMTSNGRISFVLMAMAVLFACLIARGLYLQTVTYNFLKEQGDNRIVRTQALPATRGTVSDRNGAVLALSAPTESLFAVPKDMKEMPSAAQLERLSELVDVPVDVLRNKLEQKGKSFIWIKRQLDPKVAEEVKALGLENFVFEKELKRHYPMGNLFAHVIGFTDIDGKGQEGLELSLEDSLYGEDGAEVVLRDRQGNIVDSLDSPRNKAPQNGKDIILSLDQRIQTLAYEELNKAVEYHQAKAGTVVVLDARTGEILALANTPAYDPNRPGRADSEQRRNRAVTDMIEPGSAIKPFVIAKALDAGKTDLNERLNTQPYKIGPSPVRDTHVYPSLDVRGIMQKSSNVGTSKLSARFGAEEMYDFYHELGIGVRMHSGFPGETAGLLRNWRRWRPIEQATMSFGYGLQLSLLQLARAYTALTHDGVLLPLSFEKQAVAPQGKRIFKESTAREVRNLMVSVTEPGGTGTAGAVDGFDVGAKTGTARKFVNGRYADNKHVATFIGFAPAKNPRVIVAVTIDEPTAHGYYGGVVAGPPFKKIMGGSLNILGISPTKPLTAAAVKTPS
Excerpt: Example I: Experimental Method for Penicillin-Binding Protein Binding Assays with Bocillin-FL Via Fluorescence Polarization
To determine the ability of boronic acid-based test PBP inhibitors to bind Penicillin Binding Proteins (PBPs), Bocillin-FL (fluorescently-labeled penicillin V; ThermoFisher Scientific) was used in a fluorescence polarization (FP) competition binding assay to assess inhibitor binding to PBP2, PBP3 or PBP4 from Escherichia coli (K12), PBP3 from Pseudomonas aeruginosa (PA01), PBP1a, PBP2 and PBP3 from Acinetobacter baumannii (ATCC 19606), and PBP2 from Neiserria gonorrheae (FA19). PBPs were cloned and purified as described previously (E. coli PBPs, King, D. T, et al., ACS Infectious Diseases 2015, 1, 175-184; P. aeruginosa PBP3, Han et. al., PNAS 2010, 107 (51), 22002-22007; A. baumannii PBPs, Penwell et. al., Antimicrob. Agents Chemother. 2015, 59 (3), 1680-1689; N. gonorrhoeae PBP2, Singh et. al., J Biol. Chem. 2019, 294 (38), 14020-14032). To establish assay conditions for competition binding, enzyme titration/saturation binding experiments were initially performed. Bocillin-FL was prepared at 0.2 μM in a buffer comprised of 50 mM Hepes (pH 8.0), 300 mM NaCl and 5% (v/v) glycerol for reactions with E. coli, P. aeruginosa and N. gonorrhoeae PBPs, and 25 mM Tris (pH 8.0), 200 mM NaCl and 10% (v/v) glycerol and 0.005% (v/v) Tween 20 for reactions with A. baumannii PBPs. Saturation binding was performed by mixing 40 μl of PBP solutions ranging in concentrations from 0-24 μM with 40 μl of the 0.2 μM Bocillin-FL solution, in individual wells of a black 384-well microplate. FP was measured immediately upon mixing (Excitation, 490 nm; Emission, 520 nm; g-factor, 0.96), using a Cytation3 (BioTek) microplate reader and measured continuously for up to 120 minutes. […] The competition binding assay (80 μl final volume) was validated using beta-lactams and PBPs at final concentrations of: 1.5 μM, E. coli PBP3; 0.75 μM, P. aeruginosa PBP3; 1 μM A. baumannii PBP1a; 2.5 μM A. baumannii PBP2; 0.2 μM A. baumannii PBP3; and […] N. gonorrhoeae PBP2. Bocillin-FL was at 0.1 μM (0.05 μM with A. baumannii PBP1a) and beta-lactam concentrations ranged from 0-1000 μM. […] Bocillin-FL was added and the FP immediately measured for up to 60 minutes (90 minutes for E. coli PBP2). […] The beta-lactam potency was reported as the concentration of beta-lactam required to reduce the amount of PBP bound-Bocillin-FL by 50% (EC50). […] Binding assays for boronic acid PBP inhibitors were performed in an identical fashion for the respective PBPs

T1 sequence (P0AD68 1-577): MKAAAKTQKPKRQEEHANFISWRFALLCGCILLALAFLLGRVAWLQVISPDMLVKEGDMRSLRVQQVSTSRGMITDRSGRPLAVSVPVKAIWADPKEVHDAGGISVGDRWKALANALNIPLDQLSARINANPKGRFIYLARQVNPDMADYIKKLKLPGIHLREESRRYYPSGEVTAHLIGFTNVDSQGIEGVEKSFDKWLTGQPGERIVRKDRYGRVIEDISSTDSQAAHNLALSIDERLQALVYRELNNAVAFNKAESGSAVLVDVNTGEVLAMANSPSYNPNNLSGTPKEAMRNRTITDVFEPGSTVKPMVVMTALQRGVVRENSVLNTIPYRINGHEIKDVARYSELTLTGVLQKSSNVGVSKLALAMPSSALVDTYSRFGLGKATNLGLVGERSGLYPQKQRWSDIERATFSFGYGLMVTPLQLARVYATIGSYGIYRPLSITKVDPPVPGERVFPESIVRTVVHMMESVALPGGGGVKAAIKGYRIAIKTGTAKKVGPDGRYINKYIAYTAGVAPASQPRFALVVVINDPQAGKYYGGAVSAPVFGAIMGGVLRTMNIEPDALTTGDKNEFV

CCN1CCN(C(=O)N[C@H](C(=O)N[C@H]2Cc3cccc(C(=O)O)c3OB2O)c2ccc(C(=O)O)cc2)C(=O)C1=O (single isomer, unassigned) [Example 123]
EC50 [1]: < 30 µM | EC50 [2]: < 10 µM

CCN1CCN(C(=O)N[C@@H](C(=O)N[C@H]2Cc3cccc(C(=O)O)c3OB2O)c2ccc(C(=O)O)cc2)C(=O)C1=O (single isomer, unassigned) [Example 124]
EC50 [1]: < 30 µM | EC50 [2]: < 10 µM

NC1(CN2CCN(C(=O)NC(C(=O)N[C@H]3Cc4cccc(C(=O)O)c4OB3O)c3cccc(NS(N)(=O)=O)c3)C(=O)C2=O)CC1 (stereo partly drawn) [Example 120, (3R)-3-(2-(4-((1-aminocyclopropyl)methyl)-2,3-dioxopiperazine-1-carboxamido)-2-(3-(sulfamoylamino)phenyl)acetamido)-2-hydroxy-3,4-dihydro-2H-benzo[e][1,2]oxaborinine-8-carboxylic acid]
EC50 [1]: 30 to 500 µM

O=C(O)c1c(F)ccc2c1OB(O)[C@@H](NC(=O)C(NC(=O)N1CCN(CCF)C(=O)C1=O)c1c(F)cc(O)cc1F)C2 (stereo partly drawn) [Example 129, (3R)-3-(2-(2,6-difluoro-4-hydroxyphenyl)-2-(4-(2-fluoroethyl)-2,3-dioxopiperazine-1-carboxamido)acetamido)-7-fluoro-2-hydroxy-3,4-dihydro-2H-benzo[e][1,2]oxaborinine-8-carboxylic acid]
EC50 [1]: < 30 µM

CCN1CCN(C(=O)NC(C(=O)N[C@H]2Cc3ccc(F)c(C(=O)O)c3OB2O)c2c(F)cc(O)cc2F)C(=O)C1=O (stereo partly drawn) [Example 130, (3R)-3-(2-(2,6-difluoro-4-hydroxyphenyl)-2-(4-ethyl-2,3-dioxopiperazine-1-carboxamido)acetamido)-7-fluoro-2-hydroxy-3,4-dihydro-2H-benzo[e][1,2]oxaborinine-8-carboxylic acid]
EC50 [1]: < 30 µM

CCN1CCN(C(=O)NC(C(=O)N[C@H]2Cc3cccc(C(=O)O)c3OB2O)c2cc(F)c(C(=O)O)cc2F)C(=O)C1=O (stereo partly drawn) [Example 137, (3R)-3-(2-(4-carboxy-2,5-difluorophenyl)-2-(4-ethyl-2,3-dioxopiperazine-1-carboxamido)acetamido)-2-hydroxy-3,4-dihydro-2H-benzo[e][1,2]oxaborinine-8-carboxylic acid]
EC50 [1]: < 30 µM

CCN1CCN(C(=O)NC(C(=O)N[C@H]2Cc3cccc(C(=O)O)c3OB2O)c2cc(Cl)c(C(=O)O)cc2F)C(=O)C1=O (stereo partly drawn) [Example 138, (3R)-3-(2-(4-carboxy-5-chloro-2-fluorophenyl)-2-(4-ethyl-2,3-dioxopiperazine-1-carboxamido)acetamido)-2-hydroxy-3,4-dihydro-2H-benzo[e][1,2]oxaborinine-8-carboxylic acid]
EC50 [1]: < 30 µM

CCN1CCN(C(=O)NC(C(=O)N[C@H]2Cc3cccc(C(=O)O)c3OB2O)c2cc(F)c(C(=O)O)c(F)c2)C(=O)C1=O (stereo partly drawn) [Example 141, (3R)-3-(2-(4-carboxy-3,5-difluorophenyl)-2-(4-ethyl-2,3-dioxopiperazine-1-carboxamido)acetamido)-2-hydroxy-3,4-dihydro-2H-benzo[e][1,2]oxaborinine-8-carboxylic acid]
EC50 [1]: < 30 µM

NCCN1CCN(C(=O)NC(C(=O)N[C@H]2Cc3cccc(C(=O)O)c3OB2O)c2ccc(C(=O)O)cc2O)C(=O)C1=O (stereo partly drawn) [Example 142, (3R)-3-(2-(4-(2-aminoethyl)-2,3-dioxopiperazine-1-carboxamido)-2-(4-carboxy-2-hydroxyphenyl)acetamido)-2-hydroxy-3,4-dihydro-2H-benzo[e][1,2]oxaborinine-8-carboxylic acid]
EC50 [1]: 30 to 500 µM

CCN1CCN(C(=O)NC(C(=O)N[C@H]2Cc3cccc(C(=O)O)c3OB2O)c2ccc(C(=O)O)cc2F)C(=O)C1=O (stereo partly drawn) [Example 145, (3R)-3-(2-(4-carboxy-2-fluorophenyl)-2-(4-ethyl-2,3-dioxopiperazine-1-carboxamido)acetamido)-2-hydroxy-3,4-dihydro-2H-benzo[e][1,2]oxaborinine-8-carboxylic acid]
EC50 [1]: < 30 µM

CCN1CCN(C(=O)NC(C(=O)N[C@H]2Cc3cccc(C(=O)O)c3OB2O)c2c(Cl)cc(C(=O)O)cc2Cl)C(=O)C1=O (stereo partly drawn) [Example 150, (3R)-3-(2-(4-carboxy-2,6-dichlorophenyl)-2-(4-ethyl-2,3-dioxopiperazine-1-carboxamido)acetamido)-2-hydroxy-3,4-dihydro-2H-benzo[e][1,2]oxaborinine-8-carboxylic acid]
EC50 [1]: 30 to 500 µM

NCCN1CCN(C(=O)NC(C(=O)N[C@H]2Cc3cccc(C(=O)O)c3OB2O)c2ccc(C(=O)O)c(Cl)c2)C(=O)C1=O (stereo partly drawn) [Example 153, (3R)-3-(2-(4-(2-aminoethyl)-2,3-dioxopiperazine-1-carboxamido)-2-(4-carboxy-3-chlorophenyl)acetamido)-2-hydroxy-3,4-dihydro-2H-benzo[e][1,2]oxaborinine-8-carboxylic acid]
EC50 [1]: < 30 µM

O=C(O)c1cccc2c1OB(O)[C@@H](NC(=O)C(NC(=O)N1CCNC1=O)c1c(F)cc(O)cc1F)C2 (stereo partly drawn) [Example 156, (3R)-3-(2-(2,6-difluoro-4-hydroxyphenyl)-2-(2-oxoimidazolidine-1-carboxamido)acetamido)-2-hydroxy-3,4-dihydro-2H-benzo[e][1,2]oxaborinine-8-carboxylic acid]
EC50 [1]: < 30 µM

CCN1CCN(C(=O)NC(C(=O)N[C@H]2Cc3cccc(C(=O)O)c3OB2O)c2c(F)cc(C(=O)O)cc2F)C(=O)C1=O (stereo partly drawn) [Example 157, (3R)-3-(2-(4-carboxy-2,6-difluorophenyl)-2-(4-ethyl-2,3-dioxopiperazine-1-carboxamido)acetamido)-2-hydroxy-3,4-dihydro-2H-benzo[e][1,2]oxaborinine-8-carboxylic acid]
EC50 [1]: < 30 µM

CCN1CCN(C(=O)NC(C(=O)N[C@H]2Cc3cccc(C(=O)O)c3OB2O)c2cc(F)c(O)c(F)c2)C(=O)C1=O (stereo partly drawn) [Example 160, (3R)-3-(2-(3,5-difluoro-4-hydroxyphenyl)-2-(4-ethyl-2,3-dioxopiperazine-1-carboxamido)acetamido)-2-hydroxy-3,4-dihydro-2H-benzo[e][1,2]oxaborinine-8-carboxylic acid]
EC50 [1]: < 30 µM

NCCN1CCN(C(=O)NC(C(=O)N[C@H]2Cc3cccc(C(=O)O)c3OB2O)c2cc(F)c(O)c(Cl)c2)C(=O)C1=O (stereo partly drawn) [Example 163, (3R)-3-(2-(4-(2-aminoethyl)-2,3-dioxopiperazine-1-carboxamido)-2-(3-chloro-5-fluoro-4-hydroxyphenyl)acetamido)-2-hydroxy-3,4-dihydro-2H-benzo[e][1,2]oxaborinine-8-carboxylic acid]
EC50 [1]: < 30 µM

CCN1CCN(C(=O)NC(C(=O)N[C@H]2Cc3cccc(C(=O)O)c3OB2O)c2cc(F)c(O)c(Cl)c2)C(=O)C1=O (stereo partly drawn) [Example 164, (3R)-3-(2-(3-chloro-5-fluoro-4-hydroxyphenyl)-2-(4-ethyl-2,3-dioxopiperazine-1-carboxamido)acetamido)-2-hydroxy-3,4-dihydro-2H-benzo[e][1,2]oxaborinine-8-carboxylic acid]
EC50 [1]: < 30 µM

CCN1CCN(C(=O)NC(C(=O)N[C@H]2Cc3cccc(C(=O)O)c3OB2O)c2cc(Cl)c(O)c(Cl)c2)C(=O)C1=O (stereo partly drawn) [Example 171, (3R)-3-(2-(3,5-dichloro-4-hydroxyphenyl)-2-(4-ethyl-2,3-dioxopiperazine-1-carboxamido)acetamido)-2-hydroxy-3,4-dihydro-2H-benzo[e][1,2]oxaborinine-8-carboxylic acid]
EC50 [1]: < 30 µM

CCN1CCN(C(=O)NC(C(=O)N[C@H]2Cc3cccc(C(=O)O)c3OB2O)c2cc(F)c(O)c(F)c2F)C(=O)C1=O (stereo partly drawn) [Example 172, (3R)-3-(2-(4-ethyl-2,3-dioxopiperazine-1-carboxamido)-2-(2,3,5-trifluoro-4-hydroxyphenyl)acetamido)-2-hydroxy-3,4-dihydro-2H-benzo[e][1,2]oxaborinine-8-carboxylic acid]
EC50 [1]: < 30 µM

CCN1CCN(C(=O)NC(C(=O)N[C@H]2Cc3cccc(C(=O)O)c3OB2O)c2ccc(O)c(F)c2F)C(=O)C1=O (stereo partly shown) [Example 173]
EC50 [1]: < 30 µM
